Experimental data reported in US10822376B2, “Biologically active peptides” (Baxalta Incorporated, priority 2008, dated 2020).
Where two headings read alike, the source gives them in different places.

Experiments:
[1] = tested on: Factor VII/VIIa deficient human plasma; assay: DDPTGA (reagent B) in FVII depleted plasma; details: compounds at 50 μM and 80, 90 or 100 μM
Experimental: (§1) The Defined Dual-Pathway Thrombin Generation Assay is performed as described below, using a commercial test kit (Technothrombin TGA, Technoclone GmbH, Vienna, Austria). […] USA) are incubated four minutes at 37° C. Preferably, Reagent C high is used. Thrombin generation is started by the addition of 40 μl of one of several types of human plasma (37° C.). […] By deviating the original fluorescence data the amount of generated thrombin is calculated from a standard curve constructed using a concentration range of thrombin.
(§2) The in vitro thrombin generation assay based on the cleavage of Z-GGR-AMC to release the fluorophore AMC, described in the specific description, i.e. the Defined Dual-Pathway Thrombin Generation Assay was used to characterise the effect of the compounds in several depleted human plasmas. […] 10 μl peptide dilution, 40 μl TGA substrate and 40 μl plasma were used as described in the specific description.
(§3) The plasmas used in the experiments were fresh frozen and were deficient in Factor V, Factor VII/VIIa, Factor VIII, Factor X or Factor XI (George King Bio-Medical, Inc.). Residual coagulation factor levels of deficient plasmas were specified as less than 1%.
(§4) For each depleted plasma used in the experiments, compounds were tested at two concentrations, namely 50 μM and 80, 90 or 100 μM. A negative control was used, in which no test compound was included.

[2] = tested on: Factor V deficient human plasma; assay: DDPTGA (reagent B) in FV depleted plasma; details: compounds at 50 μM and 80, 90 or 100 μM
Experimental: as §1, §2, §3, §4

[3] = tested on: FVIII deficient plasma; assay: Defined Dual-Pathway Thrombin Generation Assay (DDPTGA, reagent C high), FVIII deficient plasma; type: biochemical, human; details: FVIII deficient plasma
[4] = tested on: Factor VIII deficient human plasma; assay: DDPTGA (reagent B) in FVIII depleted plasma; type: biochemical; details: compounds at 50 μM and 80, 90 or 100 μM; also: key: '+' means stimulates; '−' means does not stimulate
Text: Preferably, Reagent C high is used.

[5] = tested on: Factor XI deficient human plasma; assay: DDPTGA (reagent B) in FXI depleted plasma; details: compounds at 50 μM and 80, 90 or 100 μM
Experimental: as §1, §2, §3, §4

[6] = tested on: Factor X deficient human plasma; assay: DDPTGA (reagent B) in FX depleted plasma; details: compounds at 50 μM and 80, 90 or 100 μM
Experimental: as §1, §2, §3, §4

[7] = tested on: FVIII inhibited plasma; assay: Defined Dual-Pathway Thrombin Generation Assay (DDPTGA, reagent C high), FVIII inhibited plasma; type: biochemical, human; details: for Peak IIa FEIBA EU / Peak IIa FVIIa EU / Peak Time FEIBA EU / Peak Time FVIIa EU: FVIII inhibited plasma
[8] = tested on: human FVIII inhibited plasma; assay: Defined Intrinsic Thrombin Generation Assay (DITGA, triggered by FXIa and phospholipids); type: biochemical; details: for Activity in the Defined Intrinsic Thrombin Generation Assay: summary
[9] = Acute toxicology in mice; type: in vivo, mouse; details: C57BL/6, mouse, in vivo, 60 minutes following administration, read-out: Max dose within toxicity category: No detected toxicity
Experimental: Toxicology studies involved monitoring of attitude changes due to toxic effects immediately after application and twice daily; monitoring of body weight; histopathology of brain, heart, kidney, liver, lung. Experiments were performed in C57131/6 mice.
C57BI/6 mice weighing 18-20 g were administered with compounds in a suitable vehicle i.v. in the tail vein or i.p. or s.c at 10 ml/kg. Quantities of the compounds administered were in the range of 0.075 to 125 mg/kg (i.v.), 15-125 mg/kg (i.p.) and 125 mg/kg (s.c.). There were four mice per group. Attitude changes due to toxic effects were monitored immediately after administration of the compound and for 60 minutes thereafter. Body weight was monitored for five days after administration. At day 5 after administration, mice were culled and autopsy performed. Brain, heart, kidney, liver, lung and spleen were biopsied.
In the above table, the maximum dose tested giving rise to no detected toxicity, some toxicity or severe toxicity over the period of 60 minutes following administration is reported. “No detected toxicity” indicates no acute toxic observations.

[10] = physchem; details: for solubility kinetic: pH 7.4
Experimental: Aqueous solubility is measured in PBS at pH 7.4 either in an assay provided by Cerep (France, Catalog ref. 900-11a) or according to the following protocol. The aim of this procedure is to determine the solubility of a drug candidate (analyte) in a buffer, by estimating the saturation concentration of the candidate in the buffer using HPLC. A known concentration of the candidate in an organic solvent is used as a standard. A stock solution of the test compound in DMSO must be prepared as the initial step. […] DMSO stock-solutions are diluted to a final concentration of 50 μM with DMSO (100% reference-solution) and buffer (test-solution) to provide a minimum volume of 500 μL of each. Both solutions are shaken at 25° C. at 950 rpm in an Eppendorf “thermomixer comfort” for at least 60 min. The suspension is centrifuged at 22 330 g for at least two min and 100 μL of the supernatant is transferred into polypropylene-inserts placed in glass vials and closed by snap-ring caps. Alternatively the solutions can be prepared in microtiter plates with half of the previously described starting solvent volume. For the determination of the solubility all samples are analyzed by HPLC in triplicate. Injection volume is at least 10 μL. The obtained data are analyzed by “Chemstation-software” (Agilent, Waldbronn, Germany). The peaks from the analyses of the organic solutions are integrated and the arithmetic mean is reported as “AUC 1” (reference area of known amount injected at the HPLC). […] The ratio of the mean “AUC 2” and “AUC 1” is calculated and thus the percentage of the dissolved amount of compound in buffer is obtained and solubility can be reported in μM.

Row | Substance | Stimulation of thrombin generation [1] | Stimulation of thrombin generation [2] | Peak IIa FVIII EU ([3]; peptide 50 μM) | Peak Time FVIII EU ([3]; peptide 50 μM) | Stimulation of thrombin generation [4] | Stimulation of thrombin generation [5] | Stimulation of thrombin generation [6] | Peak IIa FEIBA EU ([7]; peptide 50 μM) | Peak IIa FVIIa EU ([7]; peptide 50 μM) | Peak Time FEIBA EU ([7]; peptide 50 μM) | Peak Time FVIIa EU ([7]; peptide 50 μM) | Thrombin peak time given as FEIBA equivalent activity ([8]; peptide 6.25 μM) | Thrombin peak time given as FEIBA equivalent activity ([8]; peptide 12.5 μM) | Thrombin peak time given as FEIBA equivalent activity ([8]; peptide 25 μM) | Thrombin peak time given as FEIBA equivalent activity ([8]; peptide 50 μM) | Thrombin peak time given as FEIBA equivalent activity ([8]; peptide 100 μM) | Activity in the Defined Intrinsic Thrombin Generation Assay [8] | NOAEL at 1 h ([9]; ip) | NOAEL at 1 h ([9]; iv) | solubility kinetic [10] | other results
1 | Ac-PMKFDVWDLYFEIVW-NH2 [Peptide A02] | + | − | BLS (BLS = below lowest standard.) | BLS (BLS = below lowest standard.) | + | + | + | BLS (BLS = below lowest standard.) | BLS (BLS = below lowest standard.) | 10.2 mU/ml | 0.4 nM | 577 mU/ml | 674 mU/ml | 780 mU/ml | 1018 mU/ml | 1305 mU/ml | possess activity | 25 mg/kg | 25 mg/kg | 35 µM | Activity in the Defined Dual-Pathway Thrombin Generation Assay ([7]; summary, FVIII inhibited or deficient plasma): possess activity; solubility ([10]; pH 7.4, Aqueous solubility): 35 µM; solubility ([10]; pH 7.4, Solubility in PBS pH 7.4): ≥ 25 µM
2 | Ac-RMKFDVWDLYFEIVW-NH2 [Peptide A01] | + | − | BLS (BLS = below lowest standard.) | BLS (BLS = below lowest standard.) | + | + | − | BLS (BLS = below lowest standard.) | BLS (BLS = below lowest standard.) | BLS (BLS = below lowest standard.) | BLS (BLS = below lowest standard.) | 97 mU/ml | 138 mU/ml | 160 mU/ml | 227 mU/ml | 338 mU/ml | possess activity | 20 mg/kg | 20 mg/kg | 9 µM | Peak IIa FVIII EU ([3]; peptide 90 μM): BLS (BLS = below lowest standard.); Peak Time FVIII EU ([3]; peptide 90 μM): BLS (BLS = below lowest standard.); Peak IIa FEIBA EU ([7]; peptide 90 μM): BLS (BLS = below lowest standard.); Peak IIa FVIIa EU ([7]; peptide 90 μM): BLS (BLS = below lowest standard.); Peak Time FEIBA EU ([7]; peptide 90 μM): BLS (BLS = below lowest standard.); Peak Time FVIIa EU ([7]; peptide 90 μM): BLS (BLS = below lowest standard.); solubility ([10]; pH 7.4, Aqueous solubility): 9 µM
